From the NIST ThermoML archive (doi:10.1021/je900598y)

Test: excess molar enthalpy (molar enthalpy of mixing); xn = mol fraction of the nth substance listed
Settings: 298.15 K, Liquid, Calvet calorimetry

CCCCC(=O)OC(=O)CCCC [pentanoic anhydride] + CCCCCCCCCCCCCC
Settings | excess molar enthalpy [kcal/mol]
x1 = 0.0319 | 0.0605
x1 = 0.0618 | 0.11
x1 = 0.0899 | 0.149
x1 = 0.1164 | 0.182
x1 = 0.1414 | 0.208
x1 = 0.165 | 0.232
x1 = 0.1873 | 0.251
x1 = 0.2126 | 0.271
x1 = 0.2363 | 0.287
x1 = 0.2587 | 0.3
x1 = 0.2798 | 0.311
x1 = 0.2997 | 0.32
x1 = 0.3186 | 0.328
x1 = 0.3364 | 0.335
x1 = 0.3569 | 0.342
x1 = 0.3714 | 0.35
x1 = 0.381 | 0.352
x1 = 0.3911 | 0.355
x1 = 0.402 | 0.357
x1 = 0.413 | 0.359
x1 = 0.4294 | 0.36
x1 = 0.4312 | 0.362
x1 = 0.4416 | 0.362
x1 = 0.4524 | 0.363
x1 = 0.4638 | 0.364
x1 = 0.4757 | 0.364
x1 = 0.4883 | 0.364
x1 = 0.5015 | 0.363
x1 = 0.5127 | 0.362
x1 = 0.5245 | 0.361
x1 = 0.5369 | 0.36
x1 = 0.5498 | 0.357
x1 = 0.5633 | 0.355
x1 = 0.5776 | 0.351
x1 = 0.5926 | 0.348
x1 = 0.6049 | 0.344
x1 = 0.6178 | 0.34
x1 = 0.6313 | 0.335
x1 = 0.6454 | 0.33
x1 = 0.6601 | 0.324
x1 = 0.6754 | 0.317
x1 = 0.6916 | 0.308
x1 = 0.7052 | 0.301
x1 = 0.7194 | 0.293
x1 = 0.7341 | 0.284
x1 = 0.7495 | 0.274
x1 = 0.7655 | 0.263
x1 = 0.7822 | 0.25
x1 = 0.7997 | 0.236
x1 = 0.8145 | 0.224
x1 = 0.8299 | 0.21
x1 = 0.8459 | 0.195
x1 = 0.8625 | 0.178
x1 = 0.8798 | 0.16
x1 = 0.8978 | 0.14
x1 = 0.9133 | 0.121
x1 = 0.9294 | 0.101
x1 = 0.9461 | 0.0789
x1 = 0.9634 | 0.0549
x1 = 0.9814 | 0.0287

CCCCCC(=O)OC(=O)CCCCC [caproic anhydride] + CCCCCCCCCCCC
Settings | excess molar enthalpy [kcal/mol]
x1 = 0.0213 | 0.0366
x1 = 0.0417 | 0.0668
x1 = 0.0612 | 0.0922
x1 = 0.08 | 0.114
x1 = 0.098 | 0.133
x1 = 0.1154 | 0.15
x1 = 0.1349 | 0.166
x1 = 0.1536 | 0.181
x1 = 0.1714 | 0.194
x1 = 0.1886 | 0.204
x1 = 0.205 | 0.214
x1 = 0.2208 | 0.222
x1 = 0.2374 | 0.23
x1 = 0.2533 | 0.236
x1 = 0.2625 | 0.244
x1 = 0.2688 | 0.247
x1 = 0.2754 | 0.249
x1 = 0.2824 | 0.252
x1 = 0.2897 | 0.254
x1 = 0.2974 | 0.257
x1 = 0.3056 | 0.26
x1 = 0.3134 | 0.262
x1 = 0.3215 | 0.264
x1 = 0.3301 | 0.266
x1 = 0.3392 | 0.268
x1 = 0.3471 | 0.27
x1 = 0.3555 | 0.272
x1 = 0.3642 | 0.273
x1 = 0.3733 | 0.275
x1 = 0.383 | 0.276
x1 = 0.3931 | 0.278
x1 = 0.4023 | 0.279
x1 = 0.412 | 0.279
x1 = 0.4222 | 0.28
x1 = 0.4329 | 0.28
x1 = 0.4442 | 0.281
x1 = 0.456 | 0.281
x1 = 0.4672 | 0.281
x1 = 0.4789 | 0.28
x1 = 0.4913 | 0.279
x1 = 0.5043 | 0.278
x1 = 0.5162 | 0.276
x1 = 0.5286 | 0.275
x1 = 0.5417 | 0.272
x1 = 0.5554 | 0.27
x1 = 0.5698 | 0.267
x1 = 0.585 | 0.263
x1 = 0.5987 | 0.259
x1 = 0.613 | 0.255
x1 = 0.628 | 0.251
x1 = 0.6438 | 0.245
x1 = 0.6604 | 0.239
x1 = 0.6778 | 0.232
x1 = 0.6941 | 0.224
x1 = 0.7112 | 0.217
x1 = 0.7291 | 0.208
x1 = 0.748 | 0.198
x1 = 0.7678 | 0.187
x1 = 0.7854 | 0.176
x1 = 0.8039 | 0.166
x1 = 0.8233 | 0.151
x1 = 0.8436 | 0.137
x1 = 0.8649 | 0.121
x1 = 0.8874 | 0.103
x1 = 0.9079 | 0.086
x1 = 0.9293 | 0.0676
x1 = 0.9517 | 0.0472
x1 = 0.9753 | 0.0247
